system: mosquito larvae, Culex pipiens; assay: Larvicidal activity against mosquito larvae in water; type: in vivo; details: 1 ml acetone solution in 100 ml water, 3rd instar larvae
Description: Representative compounds of the N,N'-sulfinyldicarbamate esters of the invention were tested for insecticidal activity against two insect species, house flies, Musca domestica, and mosquito larvae, Culex pipiens. Stock 1% concentrated solutions of each of the test compounds were made in acetone, and such solutions diluted with acetone to a concentration of 0.001-0.1%. House flies were treated topically on the notum by 1 μl of each of the diluted acetone solutions and percent mortality was counted 24 hours after application. Insects were held at a constant temperature of 60° F. Larvicidal activity was determined by applying 1 ml of the acetone solution in 100 ml of water containing 20 3rd instar mosquito larvae. Results are presented as LD50 in μg/g for house flies and LC50 in ppm for mosquito larvae.

**Q.** Which “Culex LC50” value does the source give for CCCCCCCOC(=O)N(C)[S+]([O-])N(C)C(=O)Oc1cccc2c1OC(C)(C)C2 (stereo not drawn) [X, 2,3-dihydro-2,2-dimethylbenzofuranyl-7 N-[N'-(n-heptoxycarbonyl)-N'-(methylaminosulfinyl)]-N-methylcarbamate] here?
**A.** 0.015 ppm

**Q.** Which “Culex LC50” value does the source give for CCOC(=O)N(C)[S+]([O-])N(C)C(=O)Oc1cccc2c1OC(C)(C)C2 (stereo not drawn) [VIII, 2,3-dihydro-2,2-dimethylbenzofuranyl-7 N-[N'-(ethoxycarbonyl)-N'-(methylaminosulfinyl)]-N-methylcarbamate] here?
**A.** 0.04 ppm

**Q.** Which “Culex LC50” value does the source give for CCCOC(=O)N(C)[S+]([O-])N(C)C(=O)Oc1ccccc1OC(C)C (stereo not drawn) [XI, 2-isopropoxyphenyl N-[N'-(n-propoxycarbonyl)-N'-(methylaminosulfinyl)]-N-methylcarbamate] here?
**A.** 0.18 ppm
